How the values were obtained:
A. fumigatus conidia = experiment: FACS binding of biotin-conjugated murine SAP to A. fumigatus conidia, with competition; design: species or system Aspergillus fumigatus; settings: Sap 10 μg/ml
Description: FIG. 1 depicts the interaction of SAP with A. fumigatus conidia in mice. a) induction of SAP circulating levels after i.t. injection of 5×10^7 A. fumigatus (AF) conidia; LPS, 0.8 mg/Kg. Mean±SD. c) FACS analysis of binding of biotin-conjugated (b-) murine SAP (Sap; 10 μg/ml) to viable dormant or germinating conidia of AF (1×10^8). Human SAP (50 μg/ml) and CRP (50 μg/ml) were also used. Mean±SD of one quadruplicate experiment of two performed.
FIG. 10 depicts the susceptibility to A. fumigatus associated with single or double deficiency for SAP and PTX3. a and b, survival of wt and Apcs^−/−, Ptx3^−/− and Apcs^−/−, Ptx3^−/− mice after i.t. injection of 1×10^8 (a) or 5×10^7 (b) conidia. a, wt, n=9 (a, b); n=9 (a, b); Ptx3^−/−, n=7 (a) or n=10 (b); Ptx3^−/−, n=5 (a) or n=12 (b). a, b, P<0.05, wt vs. Apcs^−/− P<0.01 wt vs. Apcs^−/−, Ptx3^−/−; P=0.06, Apcs^−/−, Ptx3^−/− vs. Ptx3^−/− (Mantel-Cox test). a) Curves of wt and Apcs^−/− refer to the same ones shown in FIG. 2a-c FACS analysis of Sap (range from 0.1 to 10 μg/ml) binding to viable AF conidia (1×10^8) in presence of Ptx3 (50 μg/ml). An anti-Sap monoclonal antibody (non-reactive to Ptx3) was used. Mean±SD of a triplicate. **, P<0.01;***, P<0.005;****, P<0.0001 (unpaired t-test).
(§1) Binding of SAP. Conidia of A. fumigatus and A. flavus (1×10^8 CFU) were cultured 4 and 16 h under static condition in Sabouraud medium to respectively allow conidia swelling and germination. Blastospores and yeast of Candida albicans were prepared as previously described (Santus et al., 2017). Yeast (8×10^6/ml) were incubated at 37° C. for hyphal induction. Formation of hyphae was evaluated under a microscope at different time points until its amount was assessed at 95%. […] After extensive washing, samples were incubated (30 min, r. t.) with Alexa Fluor® 647-conjugated streptavidin and binding was evaluated by FACS as frequency and MFI and visualized by confocal microscopy as described. […]

Candida albicans = experiment: FACS binding of biotin-conjugated murine SAP to Candida albicans, with competition
Description: FIG. 16 depicts the binding of Sap on Candida. a) FACS analysis of binding of biotin-conjugated (b-) murine SAP (Sap; 10 μg/ml) to bastospore, yeast and hyphae of Candida albicans (1×10^8). Human SAP (50 μg/ml) was also used to compete binding of Sap. […] Survival of wt and Apcs^−/− mice after retroorbital injection of 1×10^6 blastospores of Candida albicans. wt, n=10; Apcs^−/− n=12.
as §1, with “95%. After washing with PBS^2+, pH 7.4, containing 0.01% (vol/vol) Tween-20 ® (Merck-Millipore), Cells (1×10^7 CFU) were incubated (1 h, r. t.) with biotin-labelled murine SAP (R&D Systems) at concentrations ranging from 0.1 to 10 μg/ml in PBS^2+, pH 7.4, containing 2% BSA (Sigma-Aldrich).” for “95%.”

Row | Molecule | competition of murine SAP binding to A. fumigatus conidia (A. fumigatus conidia; competitor 50 μg/ml) | competition of Sap binding to Candida albicans (Candida albicans; competitor 50 μg/ml) | binding to A. fumigatus conidia (A. fumigatus conidia; FACS and confocal microscopy) | binding to blastospores, yeasts and hyphae of Candida albicans (Candida albicans; Sap 10 μg/ml)
1 | human native SAP: Native SAP from human serum purchased by Merck-Millipore; Serum Amyloid P component, SEQ ID NO: 1 | competed | competed |  | 
2 | recombinant murine SAP: recombinant murine SAP from mouse myeloma cell line NSO (R&D Systems) (protein, UniProt P12246 21-224, looked up) Serum amyloid P-component: QTDLKRKVFVFPRESETDHVKLIPHLEKPLQNFTLCFRTYSDLSRSQSLFSYSVKGRDNELLIYKEKVGEYSLYIGQSKVTVRGMEEYLSPVHLCTTWESSSGIVEFWVNGKPWVKKSLQREYTVKAPPSIVLGQEQDNYGGGFQRSQSFVGEFSDLYMWDYVLTPQDILFVYRDSPVNPNILNWQALNYEINGYVVIRPRVWD |  |  | bound viable dormant, swollen and germinated conidia | bound with low affinity
